These results are taken from patent publication US20260092061A1, “COMPOUNDS FOR TARGETED PROTEIN DEGRADATION” (Amphista Therapeutics Limited, priority 2022, published 2026).

For test [1], the target named is T1, BRD9 (Homo sapiens, UniProt Q9H8M2).
T1 sequence (Q9H8M2 1-597): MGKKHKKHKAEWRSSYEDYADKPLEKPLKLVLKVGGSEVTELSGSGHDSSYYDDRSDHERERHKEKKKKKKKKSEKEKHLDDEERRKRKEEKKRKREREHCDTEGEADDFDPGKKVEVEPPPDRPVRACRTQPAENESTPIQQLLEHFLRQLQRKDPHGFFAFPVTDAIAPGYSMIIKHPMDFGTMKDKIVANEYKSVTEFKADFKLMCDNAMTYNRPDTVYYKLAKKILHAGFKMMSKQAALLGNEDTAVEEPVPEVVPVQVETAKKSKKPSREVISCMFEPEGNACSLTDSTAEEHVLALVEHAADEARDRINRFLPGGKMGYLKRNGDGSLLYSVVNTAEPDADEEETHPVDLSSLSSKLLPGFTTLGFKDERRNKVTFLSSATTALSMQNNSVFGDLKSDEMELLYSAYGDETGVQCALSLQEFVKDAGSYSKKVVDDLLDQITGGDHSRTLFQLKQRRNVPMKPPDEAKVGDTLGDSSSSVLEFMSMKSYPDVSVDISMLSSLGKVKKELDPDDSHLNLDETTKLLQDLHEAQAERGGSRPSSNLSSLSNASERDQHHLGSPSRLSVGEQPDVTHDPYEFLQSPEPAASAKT
As to the kind of experiment: BRD9 degradation, HiBiT-BRD9 KI HEK293 (LgBiT) cells, NanoGlo Lytic Endpoint assay (Assay Protocol 1). It counts as cell-based. Conditions: BRD9 degradation; for Dmax / Dmax at 1 µM: HEK293; for Dmax at 1 µM: 1 μM compound at 6 h of treatment, read-out: Assay 1 Dmax. In outline:
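HiBiT-tagged BRD9 knock-in HEK293 (LgBiT) cells exposed to compounds for 6 h at 37 °C, 5% CO2. Residual BRD9 measured by HiBiT lytic luminescence. % BRD9 remaining normalised to DMSO-treated cells (high) and no-cell wells (low).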

The target of test [2] is T1, BRD9. Put plainly: Degradation of BRD9 (IF), immunofluorescence in MV4-11 cells, 24 hours (Assay Protocol 2). It counts as cell-based. The arrangement: A suspension of MV4-11 cells (ATCC CRL-9591) was prepared; host or cells: MV4-11. Summed up:
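MV4-11 cells treated with compound 24 h at 37° C., then fixed, permeabilised and immunostained for BRD9 (anti-BRD9 E4Q3F, Alexa 647 secondary, Hoechst counterstain). High-content imaging quantified nuclear BRD9 signal; % BRD9 remaining normalised to DMSO and 100 nM CFT-8634 controls.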

Setting [3] is: Assay protocol 1, read-out: DC50.
Where [4] appears, read: Assay protocol 1, read-out: Dmax.
Where [5] appears, read: Assay protocol 2, BRD9 degradation, read-out: DC50.
The mark [6] stands for this setting: MV4-11, Assay protocol 2, BRD9 degradation, read-out: Dmax.
[7] abbreviates: Table 4, determined according to Assay Protocol 1, read-out: Dmax^1.
Where [8] appears, read: MV4-11, Table 4, BRD9 degradation, determined according to Assay Protocol 2, read-out: Dmax^2.
The mark [9] stands for this setting: Table 4, BRD9 degradation, determined according to Assay Protocol 2, read-out: DC50^2.
The mark [10] stands for this setting: Table 4, determined according to Assay Protocol 1, read-out: DC50^1.
[11] abbreviates: Table 2, Assay Protocol 1, 6 h of treatment, read-out: Assay 1 DC50.
Setting [12] is: MV4-11, 24 h, Table 2, BRD9 degradation (IF), Assay Protocol 2, MV4-11 cells, read-out: Assay 2 DCmax.
[13] abbreviates: Table 2, BRD9 degradation (IF), Assay Protocol 2, MV4-11 cells, read-out: Assay 2 DC50.

As to `COc1cc(-c2cn(C)c(=O)c(C)c2C)cc(OC)c1CN1CCN(Cc2cccc3c2CCN(C(=O)/C(C#N)=C/C2(C)CCOCC2)C3C)C2(CC2)C1` (mixture of isomers) [Compound B123, (E/Z)-2-(5-((7-(2,6-dimethoxy-4-(1,4,5-trimethyl-6-oxo-1,6-dihydropyridin-3-yl)benzyl)-4,7-diazaspiro[2.5]octan-4-yl)methyl)-1-methyl-1,2,3,4-tetrahydroisoquinoline-2-carbonyl)-3-(4-methyltetrahydro-2H-pyran-4-yl)acrylonitrile], the 50% degradation concentration (DC50) is 1.25 to 10 nM at BRD9 [1] (setting [3]) and less than 1.25 nM on BRD9 [2] (setting [5]). In addition, the Dmax at BRD9 [1] (setting [4]) and at BRD9 [2] (setting [6]) was more than 75% throughout.
For `COc1cc(-c2cn(C)c(=O)c(C)c2C)cc(OC)c1CN1CCN(C(=O)C2CCCN(C(=O)/C(C#N)=C/c3nccs3)C2)CC1` (stereo not shown) [Compound B205], the Dmax at BRD9 [1] (setting [7]) lay in the range of 30 to 50%; at BRD9 [2] (setting [8]) it was 50 to 70%. At BRD9 [2] (setting [9]), the 50% degradation concentration (DC50) lay in the range of 25 to 200 nM.
Consider `COc1cc(-c2cn(C)c(=O)c(C)c2C)cc(OC)c1CN1CCN(C(=O)[C@@H]2CN(C(=O)/C(C#N)=C/C(C)(C)C)C[C@H]2C2CCCCC2)CC1` [Compound B210], for which the Dmax on BRD9 [1] (setting [7]) and at BRD9 [2] (setting [8]) was 50 to 70% in each case. Moreover, the half-maximal degradation concentration (DC50) at BRD9 [1] (setting [10]) and on BRD9 [2] (setting [9]) was 25 to 200 nM in each case.
Regarding `COc1cc(-c2cn(C)c(=O)c3cnccc23)cc(OC)c1CN1CC2CCC(C1)N2Cc1cccc2c1CCN(C(=O)/C(C#N)=C/C(C)(C)C)C2C` (mixture of isomers) [Compound A48, (E/Z)-2-(5-((3-(2,6-dimethoxy-4-(2-methyl-1-oxo-1,2-dihydro-2,7-naphthyridin-4-yl)benzyl)-3,8-diazabicyclo[3.2.1]octan-8-yl)methyl)-1-methyl-1,2,3,4-tetrahydroisoquinoline-2-carbonyl)-4,4-dimethylpent-2-enenitrile], on BRD9 [1] (Table 2, Assay Protocol 1), the Dmax at 1 µM was more than 75%. Also, the results for the DC50 at BRD9 [1] (setting [11]) and on BRD9 [2] (setting [13]) were 1.25 to 10 nM and less than 1.25 nM, respectively. Further, the Dmax on BRD9 [2] (setting [12]) fell in the range of 40 to 70%.
Take `COc1cc(-c2cn(C)c(=O)c3cnccc23)cc(OC)c1CN1CCC(Oc2cccc3c2CCN(C(=O)/C(C#N)=C/C(C)(C)C)C3C)CC1` (mixture of isomers) [Compound A28, (E/Z)-2-(5-((1-(2,6-dimethoxy-4-(2-methyl-1-oxo-1,2-dihydro-2,7-naphthyridin-4-yl)benzyl)piperidin-4-yl)oxy)-1-methyl-1,2,3,4-tetrahydroisoquinoline-2-carbonyl)-4,4-dimethylpent-2-enenitrile]: on BRD9 [1] (Table 2, Assay Protocol 1), the Dmax at 1 µM was 40 to 70%. Moreover, on BRD9 [1] (setting [11]), the half-maximal degradation concentration (DC50) was in the range of 1.25 to 10 nM. Further, the Dmax on BRD9 [2] (setting [12]) fell in the range of 40 to 70%.
`COc1cc(-c2cn(C)c(=O)c(C)c2C)cc(OC)c1CN1CCN(C(=O)/C(C#N)=C/C(C)(C)C)CC12CC2` [BRD9f, (E/Z)-2-(4-(2,6-dimethoxy-4-(1,4,5-trimethyl-6-oxo-1,6-dihydropyridin-3-yl)benzyl)-4,7-diazaspiro[2.5]octane-7-carbonyl)-4,4-dimethylpent-2-enenitrile]: the Dmax on BRD9 [1] (setting [7]) and at BRD9 [2] (setting [8]) was 50 to 70% each time. The half-maximal degradation concentration (DC50) at BRD9 [1] (setting [10]) and on BRD9 [2] (setting [9]) was less than 25 nM throughout.
Regarding `COc1cc(-c2cn(C)c(=O)c(C)c2C)cc(OC)c1CN1CCN(CC(=O)NCCOc2ccc3c(c2)C(C)N(C(=O)/C(C#N)=C/c2nccs2)CC3)CC1` (mixture of isomers) [Compound B29, (E/Z)—N-(2-((2-(2-cyano-3-(thiazol-2-yl)acryloyl)-1-methyl-1,2,3,4-tetrahydroisoquinolin-7-yl)oxy)ethyl)-2-(4-(2,6-dimethoxy-4-(1,4,5-trimethyl-6-oxo-1,6-dihydropyridin-3-yl)benzyl)piperazin-1-yl)acetamide], the 50% degradation concentration (DC50) is 25 to 1000 nM on BRD9 [1] (setting [3]) and 10 to 25 nM on BRD9 [2] (setting [5]). Further, the Dmax at BRD9 [1] (setting [4]) was 70 to 75%; at BRD9 [2] (setting [6]), more than 75%.
Regarding `COc1cc(-c2cn(C)c(=O)c3cc(C(=O)NCCOc4ccc5c(c4)CCN(C(=O)/C(C#N)=C/c4nccs4)C5C)sc23)cc(OC)c1CN(C)C` (mixture of isomers) [Compound A74], at BRD9 [1] (Table 2, Assay Protocol 1), the Dmax at 1 µM lay in the range of 40 to 70%. Besides, the figures for the 50% degradation concentration (DC50) on BRD9 [1] (setting [11]) and on BRD9 [2] (setting [13]) were 25 to 300 nM and 1.25 to 10 nM, respectively. The Dmax at BRD9 [2] (setting [12]) fell in the range of 40 to 70%.
For `COc1cc(-c2cn(C)c(=O)c(C)c2C)cc(OC)c1CN1CCN(Cc2cccc3c2CCN(C(=O)/C(C#N)=C/C(C)(C)C)C3C)C2(CC2)C1` (mixture of isomers) [Compound B47, (E/Z)-2-(5-((7-(2,6-dimethoxy-4-(1,4,5-trimethyl-6-oxo-1,6-dihydropyridin-3-yl)benzyl)-4,7-diazaspiro[2.5]octan-4-yl)methyl)-1-methyl-1,2,3,4-tetrahydroisoquinoline-2-carbonyl)-4,4-dimethylpent-2-enenitrile], the DC50 on BRD9 [1] (setting [3]) and on BRD9 [2] (setting [5]) was less than 1.25 nM throughout. Further, the Dmax at BRD9 [1] (setting [4]) and at BRD9 [2] (setting [6]) was more than 75% throughout.
For the molecule `COc1ccnc(/C=C(\C#N)C(=O)N2CCc3c(CN4CCN(Cc5c(OC)cc(-c6cn(C)c(=O)c(C)c6C)cc5OC)CC4)cccc3C2C)c1` (mixture of isomers) [Compound B52, (E/Z)-2-(5-((4-(2,6-dimethoxy-4-(1,4,5-trimethyl-6-oxo-1,6-dihydropyridin-3-yl)benzyl)piperazin-1-yl)methyl)-1-methyl-1,2,3,4-tetrahydroisoquinoline-2-carbonyl)-3-(4-methoxypyridin-2-yl)acrylonitrile], the half-maximal degradation concentration (DC50) at BRD9 [1] (setting [3]) is less than 1.25 nM; on BRD9 [2] (setting [5]), 25 to 1000 nM. Further, the Dmax at BRD9 [1] (setting [4]) lay in the range of 70 to 75%; at BRD9 [2] (setting [6]), 40 to 70%.
Regarding `COc1cc(-c2cn(C)c(=O)c(C)c2C)cc(OC)c1CN1CC2CC1CN2C(=O)/C(C#N)=C/c1cccc(C(F)(F)F)n1` (mixture of isomers) [BRD9x, (E/Z)-2-(5-(2,6-dimethoxy-4-(1,4,5-trimethyl-6-oxo-1,6-dihydropyridin-3-yl)benzyl)-2,5-diazabicyclo[2.2.1]heptane-2-carbonyl)-3-(6-(trifluoromethyl)pyridin-2-yl)acrylonitrile], the DC50 on BRD9 [1] (setting [10]) and at BRD9 [2] (setting [9]) was less than 25 nM throughout. Moreover, the Dmax at BRD9 [2] (setting [8]) is more than 70%.
For `COc1cc(-c2cn(C)c(=O)c(C)c2C)cc(OC)c1CN1CCN(c2cccc3c2CCN(C(=O)/C(C#N)=C/c2cccc(Br)n2)C3C)CC1` (single isomer, unassigned) [Compound C28, (E/Z)-3-(6-bromopyridin-2-yl)-2-(5-(4-(2,6-dimethoxy-4-(1,4,5-trimethyl-6-oxo-1,6-dihydropyridin-3-yl)benzyl)piperazin-1-yl)-1-methyl-1,2,3,4-tetrahydroisoquinoline-2-carbonyl)acrylonitrile], the Dmax on BRD9 [1] (setting [4]) is 25 to 40%; on BRD9 [2] (setting [6]) it was 40 to 70%. In addition, the half-maximal degradation concentration (DC50) at BRD9 [2] (setting [5]) was in the range of 25 to 1000 nM.
On to `COc1cc(-c2cn(C)c(=O)c(C)c2C)cc(OC)c1C(=O)N1CCN(Cc2cccc(C3CCCN3C(=O)/C(C#N)=C/C(C)(C)C)c2)CC1` (mixture of isomers) [Compound B46, (E/Z)-2-(2-(3-((4-(2,6-dimethoxy-4-(1,4,5-trimethyl-6-oxo-1,6-dihydropyridin-3-yl)benzoyl)piperazin-1-yl)methyl)phenyl)pyrrolidine-1-carbonyl)-4,4-dimethylpent-2-enenitrile], for which the DC50 on BRD9 [1] (setting [3]) lay within 10 to 25 nM; at BRD9 [2] (setting [5]), 1.25 to 10 nM. Moreover, the Dmax on BRD9 [1] (setting [4]) and on BRD9 [2] (setting [6]) was more than 75% throughout.
On to `COc1cc(-c2cn(C)c(=O)c(C)c2C)cc(OC)c1CN1CCN(Cc2cccc3c2CCN(C(=O)/C(C#N)=C/c2cc(C(F)(F)F)ccn2)C3C)CC1` (mixture of isomers) [Compound B50, (E/Z)-2-(5-((4-(2,6-dimethoxy-4-(1,4,5-trimethyl-6-oxo-1,6-dihydropyridin-3-yl)benzyl)piperazin-1-yl)methyl)-1-methyl-1,2,3,4-tetrahydroisoquinoline-2-carbonyl)-3-(4-(trifluoromethyl)pyridin-2-yl)acrylonitrile], for which the DC50 at BRD9 [1] (setting [3]) is less than 1.25 nM; on BRD9 [2] (setting [5]) it was 10 to 25 nM. Also, the Dmax on BRD9 [1] (setting [4]) was 70 to 75%; at BRD9 [2] (setting [6]), more than 75%.
